In one assay the test system is E. coli NCIMB 8545. Put plainly: Biocide test, MIC in tryptone soy broth. The class given is cell-based. The conditions noted are these: 30° C., 48 hours; for MIC value, from: lower limit of MIC range; for MIC value, to: upper limit of MIC range. How it is done: (§1) For this, in each case a 40 percent strength by weight solution of a diol in propylene glycol was prepared at 60° C.
(§2) This solution was diluted with a double-strength soy solution (double-strength tryptone soy broth) as nutrient medium in the volume ratio 1:1. Further dilution with soy solution produced solutions with the following concentrations:
(§3) The following microorganisms were used to test the biocidal effect against various bacteria and fungi:
(§4) Pure soy solution was used as negative control. The positive control used was a solution of 5 ml of soy solution which has been treated with 0.1 ml of the respective microorganism. The test solutions consisted of 5 ml of the above-described soy solutions of the diols in the particular concentration which have been mixed with 0.1 ml of the respective microorganism.
(§5) The samples and controls were incubated in the case of the bacteria at 30° C. for 48 hours, and in the case of fungi over 5 days at 25° C.
(§6) In each case, the MIC (Minimum Inhibitory Concentration) value was determined. This value indicates the minimum concentration above which the growth of the microorganisms was visibly hindered compared to the corresponding sample without addition of the diol.
(§7) The lower the MIC value, the greater the biocidal effect.
(§8) For example, this was evident from the occurrence of clouding or visible growth of the microorganism.
(§9) The MIC value stated is a range between the next higher concentration of a positive test and the same and/or lower concentration of a first negative test.

Another assay concerns S. aureus NCIMB 9578. The experiment in a line: Biocide test, MIC in tryptone soy broth. The class given is cell-based. As to conditions: 30° C., 48 hours; for MIC value, from: lower limit of MIC range; for MIC value, to: upper limit of MIC range. How it is done:
as §1, §2, §3, §4, §5, §6, §7, §8, §9

Another assay relates to P. vulgaris NCIMB 4175. Put plainly: Biocide test, MIC in tryptone soy broth. The assay is classed as cell-based. As to conditions: 30° C., 48 hours; for MIC value, from: lower limit of MIC range; for MIC value, to: upper limit of MIC range. How it is done: as §1, §2, §3, §4, §5, §6, §7, §8, §9
Another assay concerns A. niger IMI 149007. Put plainly: Biocide test, MIC in tryptone soy broth. As to conditions: 25° C., 5 days; for MIC value, from: lower limit of MIC range; for MIC value, to: upper limit of MIC range. The class given is cell-based. How it is done: as §1, §2, §3, §4, §5, §6, §7, §8, §9
The next assay concerns C. albicans NCPF 3179. Put plainly: Biocide test, MIC in tryptone soy broth. As to conditions: 25° C., 5 days; for MIC value, from: lower limit of MIC range; for MIC value, to: upper limit of MIC range. The assay is classed as cell-based. How it is done: as §1, §2, §3, §4, §5, §6, §7, §8, §9
Assay [1] has as its system series of tested microorganisms. Put plainly: Biocide test, highest measured MIC from the series of tested microorganisms. The class given is cell-based. The conditions noted are these: highest measured MIC of the six microorganisms; for Maximum MIC value, from: lower limit of range; for Maximum MIC value, to: upper limit of range. As for the experimental part: as §3, §6, §9
In the last line of each of the tables below, a “maximum” value is listed. This value indicates the highest measured MIC value in each case from the series of tested microorganisms.

The subject of assay [2] is P. aeruginosa NCIMB 10421. Put plainly: Biocide test, MIC in tryptone soy broth. The conditions noted are these: 30° C., 48 hours; for MIC value, from: lower limit of MIC range; for MIC value, to: upper limit of MIC range. The assay is classed as cell-based. As for the experimental part:
as §1, §2, §3
P. aeruginosa NCIMB 10421
as §4, §5, §6, §7, §8, §9

In another assay the test system is microorganisms. As to conditions: as stated for the comparison substances; cited from earlier work.

The values below come from patent US20120157548A1, “USE OF CYCLOALIPHATIC DIOLS AS BIOCIDES” (BASF SE, priority 2009, published 2012).

In the case of `CCCC(O)CO` (centres unmarked) [1,2-Pentanediol], the “MIC value, from” value is >25 000 ppm of diol in the assay on E. coli NCIMB 8545; >25 000 ppm of diol against S. aureus NCIMB 9578; >25 000 ppm of diol with P. vulgaris NCIMB 4175; >12 500 ppm of diol with A. niger IMI 149007; >25 000 ppm of diol with C. albicans NCPF 3179; >12 500 ppm of diol in assay [2]. The “MIC value, to” value against E. coli NCIMB 8545 was “≦50 000 ppm of diol”; in the assay with S. aureus NCIMB 9578, “≦50 000 ppm of diol”; with P. vulgaris NCIMB 4175, “≦50 000 ppm of diol”; in the assay on A. niger IMI 149007, “≦25 000 ppm of diol”; against C. albicans NCPF 3179 it was “≦50 000 ppm of diol”; in assay [2], “≦25 000 ppm of diol”. Also, the “Maximum MIC value, from” value in assay [1] is on record as >25 000 ppm of diol. Also, in assay [1], the “Maximum MIC value, to” value is on record as “≦50 000 ppm of diol”. For the same compound, the biocidal effect entry in the assay with microorganisms is listed as “high biocidal effect”.

Turning to “Hydroxymethylbicyclo[2.2.1]hept-2-ylmethanol isomers [2,5-2,6-DMNB]”, the “MIC value, from” value is given as >6 250 ppm of diol against E. coli NCIMB 8545; >6 250 ppm of diol in the assay on S. aureus NCIMB 9578; >6 250 ppm of diol with P. vulgaris NCIMB 4175; >50 000 ppm of diol against A. niger IMI 149007; >50 000 ppm of diol against C. albicans NCPF 3179; >6 250 ppm of diol in assay [2]. In addition, the “MIC value, to” value is on record as “≦12 500 ppm of diol” with E. coli NCIMB 8545; “≦12 500 ppm of diol” against S. aureus NCIMB 9578; “≦12 500 ppm of diol” against P. vulgaris NCIMB 4175; “≦100 000 ppm of diol” against A. niger IMI 149007; “≦100 000 ppm of diol” against C. albicans NCPF 3179; “≦12 500 ppm of diol” in assay [2]. In assay [1], the “Maximum MIC value, from” value is >50 000 ppm of diol. Also, the “Maximum MIC value, to” value in assay [1] is given as “≦100 000 ppm of diol”.

In the case of `CC(O)CC(C)O` (centres unmarked) [2,4-Pentanediol], the “MIC value, from” value is reported as >50 000 ppm of diol against E. coli NCIMB 8545; >50 000 ppm of diol in the assay with S. aureus NCIMB 9578; >50 000 ppm of diol with P. vulgaris NCIMB 4175; >200 000 ppm of diol in the assay on A. niger IMI 149007; >50 000 ppm of diol in the assay on C. albicans NCPF 3179; >50 000 ppm of diol in assay [2]. Besides, the “MIC value, to” value is recorded as “≦100 000 ppm of diol” against E. coli NCIMB 8545; “≦100 000 ppm of diol” in the assay with S. aureus NCIMB 9578; “≦100 000 ppm of diol” in the assay on P. vulgaris NCIMB 4175; “≦400 000 ppm of diol” with A. niger IMI 149007; “≦100 000 ppm of diol” against C. albicans NCPF 3179; “≦100 000 ppm of diol” in assay [2]. Further, the “Maximum MIC value, from” value in assay [1] was >200 000 ppm of diol. In assay [1], the “Maximum MIC value, to” value was “≦400 000 ppm of diol”. Further, the biocidal effect entry in the assay on microorganisms is “low biocidal effect”.

Consider `CC(O)CO` (centres unmarked) [Propylene Glycol], for which the “MIC value, from” value in the assay with E. coli NCIMB 8545 is >200 000 ppm of diol; in the assay on S. aureus NCIMB 9578, >200 000 ppm of diol; against P. vulgaris NCIMB 4175 it was >100 000 ppm of diol; against A. niger IMI 149007, >200 000 ppm of diol; against C. albicans NCPF 3179, >200 000 ppm of diol; in assay [2], >100 000 ppm of diol. The “MIC value, to” value against E. coli NCIMB 8545 is given as “≦400 000 ppm of diol”; in the assay with S. aureus NCIMB 9578 it was “≦400 000 ppm of diol”; against P. vulgaris NCIMB 4175 it was “≦200 000 ppm of diol”; with A. niger IMI 149007, “≦400 000 ppm of diol”; against C. albicans NCPF 3179, “≦400 000 ppm of diol”; in assay [2], “≦200 000 ppm of diol”. Also, the “Maximum MIC value, from” value in assay [1] is >200 000 ppm of diol. The “Maximum MIC value, to” value in assay [1] is on record as “≦400 000 ppm of diol”.

As for “Hydroxymethylbicyclo[2.2.1]hept-2-ylpropan-1-ol isomers [ENB-Diol]”, the “MIC value, from” value in the assay with E. coli NCIMB 8545 is listed as >3 125 ppm of diol; against S. aureus NCIMB 9578 it was >3 125 ppm of diol; against P. vulgaris NCIMB 4175, >3 125 ppm of diol; in the assay on A. niger IMI 149007, >12 500 ppm of diol; with C. albicans NCPF 3179 it was >12 500 ppm of diol; in assay [2], >50 000 ppm of diol. For the same compound, the “MIC value, to” value in the assay with E. coli NCIMB 8545 is reported as “≦6 250 ppm of diol”; in the assay on S. aureus NCIMB 9578, “≦6 250 ppm of diol”; against P. vulgaris NCIMB 4175, “≦6 250 ppm of diol”; with A. niger IMI 149007 it was “≦25 000 ppm of diol”; in the assay on C. albicans NCPF 3179, “≦25 000 ppm of diol”; in assay [2], “≦100 000 ppm of diol”. The “Maximum MIC value, from” value in assay [1] is given as >50 000 ppm of diol. The “Maximum MIC value, to” value in assay [1] is “≦100 000 ppm of diol”.

As for “Hydroxymethylcyclohexylpropan-1-ol isomers [CHA-diol]”, the “MIC value, from” value is recorded as >3 125 ppm of diol against E. coli NCIMB 8545; >6 250 ppm of diol against S. aureus NCIMB 9578; >3 125 ppm of diol against P. vulgaris NCIMB 4175; >200 000 ppm of diol with A. niger IMI 149007; >6 250 ppm of diol in the assay on C. albicans NCPF 3179; >50 000 ppm of diol in assay [2]. In addition, the “MIC value, to” value was “≦6 250 ppm of diol” with E. coli NCIMB 8545; “≦12 500 ppm of diol” with S. aureus NCIMB 9578; “≦6 250 ppm of diol” against P. vulgaris NCIMB 4175; “≦400 000 ppm of diol” in the assay with A. niger IMI 149007; “≦12 500 ppm of diol” with C. albicans NCPF 3179; “≦100 000 ppm of diol” in assay [2]. The “Maximum MIC value, from” value in assay [1] is on record as >200 000 ppm of diol. Besides, the “Maximum MIC value, to” value in assay [1] is on record as “≦400 000 ppm of diol”.
